Format in all cases: cell-based
One data set deals with influenza A (H3N2). Kind of data set: microbe, parasite or virus in culture. The settings on record: H3N2, MDCK, read-out: EC50 against influenza A (H3N2).
In the next data set the test system is HIV-1. In words: Anti-HIV-1 activity, virus-induced cytopathicity in CEM cells. Background: Cytopathic effects are the visible damage that an infection or toxin causes in cultured cells.
In another data set the test system is HIV-2. In words: Anti-HIV-2 activity, virus-induced cytopathicity in CEM cells.
For data set [1], the system named is normal diploid human fibroblasts (WI 38). Kind of data set: Antiproliferation MTT assay. For orientation: Tetrazolium assays rely on reduction of a dye to a coloured formazan, in cell work by metabolically active cells.
Data set [2] has as its system all evaluated tumour cell lines (L1210, Molt4/C8, CEM, HeLa, MCF-7, MiaPaCa-2, SW 620, Hep G2). In words: Cytostatic activity over the whole panel of evaluated cell lines. The settings on record: read-out: IC50 range on all the evaluated tumour cell lines.

The EC50 is the concentration giving half of the maximal effect. As usually defined, the IC50 is the concentration that inhibits the measured activity by half.

“Also recorded” adds a separate entry of the source.

For `CCCCCCCCC#Cc1cn(C/C=C\CN2C(=O)c3ccccc3C2=O)c(=O)[nH]c1=O` [Compound 2, (Z)-1-[4′-(N-Phthalimido)-2′-butenyl]-5-decynyluracil], the EC50 with influenza A (H3N2) is 2.5 to 4 µM.
Consider `O=C1c2ccccc2C(=O)N1C/C=C\Cn1cc(C#CCCc2ccccc2)c(=O)[nH]c1=O` [Compound 3, (Z)-1-[4′-(N-Phthalimido)-2′-butenyl]-5-(4″-phenylbutynyl)uracil], for which the “inhibitory activity against HIV-1, in words” value in the data set on HIV-1 was “marginal inhibitory activity; also recorded: slight activity”. Further, the “inhibitory activity against HIV-2, in words” value with HIV-2 is reported as “marginal inhibitory activity”.
Taken in the same sequence, the figures for `O=C1c2ccccc2C(=O)N1C/C=C\Cn1cc(C#Cc2ccc(Br)cc2)c(=O)[nH]c1=O` [Compound 4, (Z)-1-[4′-(N-Phthalimido)-2′-butenyl]-5-(p-bromophenylethynyl)uracil] were “marginal inhibitory activity; also recorded: slight activity” and “marginal inhibitory activity”.
In the case of `CCCCCc1ccc(C#Cc2cn(C/C=C\CN3C(=O)c4ccccc4C3=O)c(=O)[nH]c2=O)cc1` [Compound 7, (Z)-1-[4′-(N-Phthalimido)-2′-butenyl]-5-(p-pentylphenylethynyl)uracil], the “cytotoxicity to human normal fibroblasts (WI 38), in words” value in data set [1] is reported as “no cytotoxicity”.
On to `CCCCCc1ccc(C#Cc2cn(C/C=C/CN3C(=O)c4ccccc4C3=O)c(=O)[nH]c2=O)cc1` [Compound 14, (E)-1-[4′-(N-Phthalimido)-2′-butenyl]-5-(p-pentylphenylethynyl)uracil], for which the “cytotoxicity to human normal fibroblasts (WI 38), in words” value in data set [1] is “cytotoxic”. Besides, in the data set with HIV-1, the “inhibitory activity against HIV-1, in words” value is given as “marginal inhibitory activity; also recorded: moderate activity”. In the data set with HIV-2, the “inhibitory activity against HIV-2, in words” value was “marginal inhibitory activity; also recorded: moderate activity”. The half-inhibitory concentration (IC50) in data set [2] was in the range of 4.3 to 39 µM.

The record behind these values is PMC7127491 (Bioorganic & Medicinal Chemistry, 2008).
